Here are results for 35 molecules from patent US11858922B2, “Sulfonylureas and related compounds and use of same” (The University of Queensland, priority 2016, dated 2024).

pIC50: −log10 of the molar value.

The first data set deals with T1, NLRP3 inflammasome (Homo sapiens, UniProt Q96P20).
T1 construct: endogenous in cells; host or cells: HMDM (human monocyte-derived macrophages from buffy coat blood)
T1 sequence (Q96P20 whole entry): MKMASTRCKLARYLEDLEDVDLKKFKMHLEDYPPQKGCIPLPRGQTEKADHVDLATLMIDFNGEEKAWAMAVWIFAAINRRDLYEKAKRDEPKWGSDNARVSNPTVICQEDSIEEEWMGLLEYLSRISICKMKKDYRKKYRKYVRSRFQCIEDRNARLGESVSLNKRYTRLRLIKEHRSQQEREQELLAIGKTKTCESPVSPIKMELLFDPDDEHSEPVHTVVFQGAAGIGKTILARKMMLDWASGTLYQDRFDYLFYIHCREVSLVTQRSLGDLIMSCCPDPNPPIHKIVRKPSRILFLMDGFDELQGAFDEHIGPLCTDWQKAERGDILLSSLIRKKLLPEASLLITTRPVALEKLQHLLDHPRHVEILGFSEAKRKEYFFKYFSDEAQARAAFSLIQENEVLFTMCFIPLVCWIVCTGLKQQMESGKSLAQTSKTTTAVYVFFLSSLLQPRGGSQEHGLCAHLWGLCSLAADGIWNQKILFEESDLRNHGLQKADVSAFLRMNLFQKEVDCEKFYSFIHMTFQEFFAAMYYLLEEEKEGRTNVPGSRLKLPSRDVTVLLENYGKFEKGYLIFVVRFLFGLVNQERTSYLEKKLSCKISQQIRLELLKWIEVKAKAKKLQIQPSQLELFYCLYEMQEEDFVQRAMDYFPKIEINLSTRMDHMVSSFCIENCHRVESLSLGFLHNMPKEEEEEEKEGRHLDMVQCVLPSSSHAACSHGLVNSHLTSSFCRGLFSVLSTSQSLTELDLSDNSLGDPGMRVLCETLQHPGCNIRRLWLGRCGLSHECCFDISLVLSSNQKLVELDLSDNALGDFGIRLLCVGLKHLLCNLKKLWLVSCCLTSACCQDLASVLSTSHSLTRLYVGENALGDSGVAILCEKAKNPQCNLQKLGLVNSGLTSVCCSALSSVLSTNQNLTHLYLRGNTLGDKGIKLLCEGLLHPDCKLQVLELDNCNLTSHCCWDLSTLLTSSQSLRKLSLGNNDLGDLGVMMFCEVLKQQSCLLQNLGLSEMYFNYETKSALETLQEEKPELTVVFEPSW
Nature of the data set: Inhibition of IL-1β release, cell based assay using HMDM (NLRP3 inflammasome activation assay).
Details: not given
As to the method: The following assays can be used to determine inhibitory activity of test compounds on the NLRP3 inflammasome using common stimuli such as adenosine triphosphate, nigericin, LeuLeu-OMe or monosodium urate crystals (MSU).
To generate HMDM (Human Monocyte Derived Macrophages), human monocytes are isolated from buffy coat blood using Ficoll-Plaque Plus (GE Healthcare) and density centrifugation. CD14^+ cell selection is performed using MACS magnetic beads (Miltenyl Biotec). Isolated CD14^+ monocytes are differentiated in culture for 7 days with 10 ng/ml human CSF-1 (Miltenyl Biotec) in Iscove's modified Dulbecco's medium (IMDM) containing L-glutamine supplemented with 10% FBS and 1% penicillin/streptomycin (Life Technologies) as described by Croker et al 2013 Immunol Cell Biol 91:625. Stably transfected ASC-cerulean macrophages as described by Hett et al. (Nat. Chem. Biol., 9, 398-405, 2013) are cultured in DMEM supplemented with 10% FCS and 1% P/S.
HMDM are seeded at 1×10^5/ml. […]
For ELISA and cell death assays cells are seeded in 96 well plates. Supernatants are removed and analysed using ELISA kits according to the manufacturer's instructions (DuoSet® R&D Systems, ReadySetGo!® eBioscience, BD OptEIA™, or Perkin Elmer AlphaLISA®). Cell death is assessed by measurement of LDH release relative to a 100% cell lysis control using the CytoTox96® non-radioactive cytotoxicity assay (Promega).
Turning to `CC(C)n1ccc(S(=O)(=O)NC(=O)Nn2c3ccccc3c3ccccc32)n1` [Example 4, N-((9H-carbazol-9-yl)carbamoyl)-1-isopropyl-1H-pyrazole-3-sulfonamide], the pIC50 (usually −log10 of the IC50, conventionally taken in molar units) is more than 5.00.
With `CN1CCN(S(=O)(=O)NC(=O)Nc2c3c(cc4c2CCC4)CCC3)CC1` [Example 2, N-((1,2,3,5,6,7-hexahydro-s-indacen-4-yl)carbamoyl)-4-methylpiperazine-1-sulfonamide], the negative logarithm of the IC50 (pIC50) was more than 6.00.

A further data set deals with T2, NLRP3 (Homo sapiens, UniProt Q96P20).
T2 construct: Seed THP-1 cells (25,000 cells/well) containing 1.0 μg/ml LPS; host or cells: THP-1 cells
T2 sequence (Q96P20 whole entry): as above
Nature of the data set: THP-1 cells pyroptosis assay. The format is cell-based. As to conditions: LPS 1.0 μg/ml, nigericin 5 μM, resazurin readout. From the text: It is well established that the activation of NLRP3 leads to cell pyroptosis and this feature plays an important part in the manifestation of the clinical disease (Yan-gang Liu et al., Cell Death & Disease, 2017, 8(2), e2579; Alexander Wree et al., Hepatology, 2014, 59(3), 898-910; Alex Baldwin et al., Journal of Medicinal Chemistry, 2016, 59(5), 1691-1710; Ema Ozaki et al., Journal of Inflammation Research, 2015, 8, 15-27; Zhen Xie & Gang Zhao, Neuroimmunology Neuroinflammation, 2014, 1(2), 60-65; Mattia Cocco et al., Journal of Medicinal Chemistry, 2014, 57(24), 10366-10382; T. Satoh et al., Cell Death & Disease, 2013, 4, e644). Therefore, it is anticipated that inhibitors of NLRP3 will block pyroptosis, as well as the release of pro-inflammatory cytokines (e.g. IL-1β) from the cell.
THP-1 cells (ATCC #TIB-202) were grown in RPMI containing L-glutamine (Gibco #11835) supplemented with 1 mM sodium pyruvate (Sigma #S8636) and penicillin (100 units/ml)/streptomycin (0.1 mg/ml) (Sigma #P4333) in 10% Fetal Bovine Serum (FBS) (Sigma #F0804). The cells were routinely passaged and grown to confluency (˜10^6 cells/ml). On the day of the experiment, THP-1 cells were harvested and resuspended into RPMI medium (without FBS). The cells were then counted and viability (>90%) checked by Trypan blue (Sigma #T8154). Appropriate dilutions were made to give a concentration of 625,000 cells/ml. To this diluted cell solution was added LPS (Sigma #L4524) to give a 1 μg/ml Final Assay Concentration (FAC). 40 μl of the final preparation was aliquoted into each well of a 96-well plate. The plate thus prepared was used for compound screening.
The following method step-by-step assay was followed for compound screening. • 1. Seed THP-1 cells (25,000 cells/well) containing 1.0 μg/ml LPS in 40 μl of RPMI medium (without FBS) in 96-well, black walled, clear bottom cell culture plates coated with poly-D-lysine (VWR #734-0317) • 2. Add 5 μl compound (8 points half-log dilution, with 10 μM top dose) or vehicle (DMSO 0.1% FAC) to the appropriate wells • 3. Incubate for 3 hrs at 37° C. in 5% CO2 • 4. Add 5 μl nigericin (Sigma #N7143) (FAC 5 μM) to all wells • 5. Incubate for 1 hr at 37° C. and 5% CO2 • 6. At the end of the incubation period, spin plates at 300×g for 3 mins and remove supernatant • 7. Then add 50 μl of resazurin (Sigma #R7017) (FAC 100 μM resazurin in RPMI medium without FBS) and incubate plates for a further 1-1.5 h at 37° C. and 5% CO2 • 8. Plates were read in an Envision reader at Ex 560 nm and Em 590 nm • 9. IC50 data is fitted to a non-linear regression equation (log inhibitor vs response-variable slope 4-parameters) 96-Well Plate Map
As for `O=C(Nc1c2c(cc3c1CCC3)CCC2)NS(=O)(=O)NCc1c(F)cc(F)cc1F` [Example 11], the pIC50 is more than 5.00.
The same measure, in the same setting: for `O=C(Nc1c2c(cc3c1CCC3)CCC2)NS(=O)(=O)NCCc1nccs1` [Example 15] the value was more than 5.00.
Still for that read-out and setting: the figure for `O=C(Nc1c2c(cc3c1CCC3)CCC2)NS(=O)(=O)NCCOc1ccccc1Cl` [Example 5] is more than 5.00; for `O=C(Nc1c2c(cc3c1CCC3)CCC2)NS(=O)(=O)NCCN1CCc2ccccc21` [Example 40] it is more than 5.00; for `CN(c1ccccc1)S(=O)(=O)NC(=O)Nc1c2c(cc3c1CCC3)CCC2` [Example 31] it is more than 5.00.
Still for that read-out and setting: the figure for `O=C(Nc1c2c(cc3c1CCC3)CCC2)NS(=O)(=O)N1CCc2ccccc21` [Example 28] is more than 5.00; for `CC(=O)c1cc2c(cc1NS(=O)(=O)NC(=O)Nc1c3c(cc4c1CCC4)CCC3)OCO2` [Example 36] it is more than 5.00.
In turn, `O=C(Nc1c2c(cc3c1CCC3)CCC2)NS(=O)(=O)NCc1cccs1` [Example 23] gave a negative logarithm of the IC50 (pIC50) of more than 5.00.
Same read-out and setting: the figure for `O=C(Nc1c2c(cc3c1CCC3)CCC2)NS(=O)(=O)Nc1ccc2[nH]ccc2c1` [Example 43, 3-(1,2,3,5,6,7-Hexahydro-s-indacen-4-yl)-1-[(1H-indol-5-yl)sulfamoyl]urea] is more than 6.00.
The same measure, in the same setting: for `Cc1ccnc(C)c1NS(=O)(=O)NC(=O)Nc1c2c(cc3c1CCC3)CCC2` [Example 39] the value was more than 5.00; for `Cc1nccn1-c1ccc(NS(=O)(=O)NC(=O)Nc2c3c(cc4c2CCC4)CCC3)cc1` [Example 27], more than 5.00; for `CN(C)CCN(Cc1ccsc1)S(=O)(=O)NC(=O)Nc1c2c(cc3c1CCC3)CCC2` [Example 18], more than 5.00.
Same read-out and setting: the figure for `CS(=O)(=O)c1cccc(CNS(=O)(=O)NC(=O)Nc2c3c(cc4c2CCC4)CCC3)c1` [Example 7] is more than 5.00.
Turning to `CN(Cc1ccc(F)cc1)S(=O)(=O)NC(=O)Nc1c2c(cc3c1CCC3)CCC2` [Example 32], the pIC50 is more than 5.00.
Still for that read-out and setting: for `O=C(Nc1c2c(cc3c1CCC3)CCC2)NS(=O)(=O)N(Cc1ccccc1)Cc1nccs1` [Example 19] the value was more than 6.00; for `O=C(Nc1c2c(cc3c1CCC3)CCC2)NS(=O)(=O)NCc1ccncc1` [Example 30], more than 4.30; for `O=C(Nc1c2c(cc3c1CCC3)CCC2)NS(=O)(=O)Nc1cccc2c1CCC2` [Example 37], more than 5.00.
On the same count and under the same terms, for `Cc1ccccc1OCCNS(=O)(=O)NC(=O)Nc1c2c(cc3c1CCC3)CCC2` [Example 26] the value was more than 5.00.
On the same count and under the same terms, the figure for `CN(Cc1csc(-c2ccccc2)n1)S(=O)(=O)NC(=O)Nc1c2c(cc3c1CCC3)CCC2` [Example 20] is more than 5.00.
Take `O=C(Nc1c2c(cc3c1CCC3)CCC2)NS(=O)(=O)NCc1ccco1` [Example 14]: the negative-log IC50 (pIC50) is more than 5.00.
Regarding `O=C(Nc1c2c(cc3c1CCC3)CCC2)NS(=O)(=O)N(CCN1CCOCC1)Cc1ccco1` [Example 17], the pIC50 is more than 4.30.
`Cc1ccc(OCCNS(=O)(=O)NC(=O)Nc2c3c(cc4c2CCC4)CCC3)cc1` [Example 24]: the pIC50 was more than 5.00.
The molecule `O=C(Nc1c2c(cc3c1CCC3)CCC2)NS(=O)(=O)N1CCN(CCc2cccs2)CC1` [Example 13] had a pIC50 of more than 5.00.
Molecule `CCn1c(=O)n(CC)c2cc(NS(=O)(=O)NC(=O)Nc3c4c(cc5c3CCC5)CCC4)c(C)cc21` [Example 34] showed a pIC50 of more than 5.00.
The same measure, in the same setting: for `CN(Cc1ccncc1)S(=O)(=O)NC(=O)Nc1c2c(cc3c1CCC3)CCC2` [Example 29] the value was more than 5.00; for `Cc1ccc(NS(=O)(=O)NC(=O)Nc2c3c(cc4c2CCC4)CCC3)cc1C#N` [Example 33], more than 5.00.
Still for that read-out and setting: for `CCN(C)C1(CNS(=O)(=O)NC(=O)Nc2c3c(cc4c2CCC4)CCC3)CCCCC1` [Example 12] the value was more than 5.00; for `O=C(Nc1c2c(cc3c1CCC3)CCC2)NS(=O)(=O)NCCc1nc(-c2cccnc2)no1` [Example 21], more than 5.00; for `COc1cc(C)c(NS(=O)(=O)NC(=O)Nc2c3c(cc4c2CCC4)CCC3)cn1` [Example 35], more than 6.00.
On the same count and under the same terms, the figure for `O=C(Nc1c2c(cc3c1CCC3)CCC2)NS(=O)(=O)NCc1ccc(Cl)cc1F` [Example 6] is more than 5.00.
As for `O=C(Nc1c2c(cc3c1CCC3)CCC2)NS(=O)(=O)NCCCc1ccccc1` [Example 25], the pIC50 was more than 5.00.
The same measure, in the same setting: for `Cn1ncc2ccc(NS(=O)(=O)NC(=O)Nc3c4c(cc5c3CCC5)CCC4)cc21` [Example 42, 1-(1,2,3,5,6,7-Hexahydro-s-indacen-4-yl)-3-[(1-methyl-1H-indazol-6-yl)sulfamoyl]urea] the value was more than 6.00.

Target in the next data set: not listed separately
Nature of the data set: Isothermal titration calorimetry (ITC), copper complexation of MCC950. It is filed as binding. As to conditions: ITC, CuCl2 titrated into 0.4 mM MCC950Na in water, 25° C. As to the method:
Complex formation between the sodium form of MCC950 and copper chloride was tested and detected by using isothermal titration calorimetry (ITC). MCC950 (also known as CRID3) is a sulphonylurea having the formula: […]
An autoITC 200 (GE life sciences) was used to measure the change in heat induced by Cu^2+-MCC950 interactions and data analysed using the MicroCal Origin version 7.0 software package adapted for auto-ITC data analysis.
Copper chloride (5 or 2.5 mM of CuCl2) dissolved in water (miliQ water; Elga) was titrated into a cell containing 0.4 mM MCC950Na also dissolved in water. The titration consisted of 19×2 μL injections at 25° C. As a control EDTA was used, in free acid form or as a sodium di-salt, at a concentration of 0.4 mM. Experiments were replicated three times and results were averaged. Thermograms and binding isotherms were used to determine the enthalpy (ΔH), binding constants (K), stoichiometry (N), and entropy (TΔS) using a single-site binding model. The change in standard Gibbs free energy (ΔG) was calculated using the Gibbs-Helmholz thermodynamic equation: ΔG=−RTInK, where R is the ideal gas constant (1.985 cal mol^−1K^−1) and T is the temperature (298 K).
In the case of `CC(C)(O)c1coc(S(=O)(=O)NC(=O)Nc2c3c(cc4c2CCC4)CCC3)c1` [MCC950], the “K (binding constant)” value was 5.69 ± 0.3 10^4 M^−1.

The data set is the same for the next values; noted with them: MCC950 sodium salt.
For `CC(C)(O)c1coc(S(=O)(=O)NC(=O)Nc2c3c(cc4c2CCC4)CCC3)c1` [MCC950], the “binding to Cu^2+ (ITC, FIG. 1)” value is on record as “significant binding”.

Test system in the next data set: not given
Experiment: not given
As to conditions: mouse; cited from earlier work.
For the molecule `CC(C)(O)c1coc(S(=O)(=O)NC(=O)Nc2c3c(cc4c2CCC4)CCC3)c1` [MCC950], the half-life (commonly the time in which the quantity being followed falls by half) is 3.2 h.

Test system in another data set: not listed separately
As to the kind of experiment: Isothermal titration calorimetry (ITC), Ca^2+ binding. As to conditions: MCC950 sodium salt. On the technique in general: Isothermal titration calorimetry measures the heat released or taken up as one component is titrated into another.
For `CC(C)(O)c1coc(S(=O)(=O)NC(=O)Nc2c3c(cc4c2CCC4)CCC3)c1` [MCC950], the “binding to Ca^2+ (ITC, FIG. 1)” value is given as “no binding”.
